Reference: paper PMC10972148, “Cloning and Characterization of a Novel N-Acetyl-D-galactosamine-4-O-sulfate Sulfatase, SulA1, from a Marine Arthrobacter Strain” (Marine Drugs, 2024)

System: T1, SulA1
T1 construct: forward primer encodes MVSSSPA (translated here)
Assay: GalNAc release by HPAEC-PAD, Michaelis-Menten nonlinear fit
Assay type: biochemical, Arthrobacter sp. MAT3885
Conditions: pH 5.5, 40 °C, 30 min, 0-20 mM substrate; 100 mM acetate buffer; unit not printed beside the value, taken from the mM axis of Figure 9B

SMILES: CC(=O)N[C@H]1C(O)O[C@H](CO)[C@H](OS(=O)(=O)O)[C@@H]1O (stereo partly drawn) [GalNAc4S, N-Acetyl-D-galactosamine-4-sulfate]
- Km: 6.94 ± 0.053 mM
